# Values joined by “and” are separate entries in the source; they are usually repeats but may differ in a detail not shown here. Equal entries are not always repeated.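 Cells were grown in 96-well plates and exposed to each compound for 48 hours at five concentrations; endpoints were interpolated linearly between bracketing concentrations, or set to the highest concentration if not reached. Here, GI50 denotes the concentration required for 50% inhibition of growth. TGI denotes the concentration required for complete inhibition of growth.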
# Experiments:
# Assay in all cases: NCI anticancer screen, dose series, 48 h
# HOP-62 NSCLC = tested on: HOP-62 NSCLC
# HT29 colon = tested on: HT29 colon
# HOP-92 NSCLC = tested on: HOP-92 NSCLC
# DU-145 prostate = tested on: DU-145 prostate
# HL-60(TB) leukemia = tested on: HL-60(TB) leukemia
# SK-MEL-2 melanoma = tested on: SK-MEL-2 melanoma
# UACC-257 melanoma = tested on: UACC-257 melanoma
# ACHN renal = tested on: ACHN renal
# SW-620 colon = tested on: SW-620 colon
# A498 renal = tested on: A498 renal
Compound,GI50 (HOP-62 NSCLC) [µM],TGI (HOP-62 NSCLC) [µM],GI50 (HT29 colon) [µM],TGI (HT29 colon) [µM],GI50 (HOP-92 NSCLC) [µM],TGI (HOP-92 NSCLC) [µM],GI50 (DU-145 prostate) [µM],TGI (DU-145 prostate) [µM],GI50 (HL-60(TB) leukemia) [µM],TGI (HL-60(TB) leukemia) [µM],GI50 (SK-MEL-2 melanoma) [µM],TGI (SK-MEL-2 melanoma) [µM],GI50 (UACC-257 melanoma) [µM],TGI (UACC-257 melanoma) [µM],GI50 (ACHN renal) [µM],TGI (ACHN renal) [µM],GI50 (SW-620 colon) [µM],TGI (SW-620 colon) [µM],GI50 (A498 renal) [µM],TGI (A498 renal)
S=c1ssc(Sc2ccccn2)c1Cl,17.5,31.3,3.43,> 100,12.6,26.8,6.52,20.2,3.56,9.78,34.6,> 100,22.2,57.9,4.62,16.7,–,–,–,–
CCN1C(=O)N(CC)C2C1NN=c1s/c(=C3\C(=O)N(C)c4ccccc43)c(=O)n12 (stereo not drawn),2.25,> 100,0.562,> 100,0.685,> 100,2.16,> 100,0.434,2.05,3.06,> 100,4.2,> 100,0.752,> 100,0.58,> 100,0.23,0.908 µM
C=C(C)[C@@H]1CC[C@@]2(C)[C@H]1[C@H]1CCC3[C@@]4(C)CC[C@H](O)C(C)(C)[C@@H]4CC[C@@]3(C)[C@]1(C)C[C@@H]2O (stereo partly drawn),–,> 100,–,> 100,–,> 100,–,> 100,–,> 100,–,–,–,> 100,–,> 100,–,> 100,–,> 100 µM
Cn1cc(-c2ccc(CNc3cc(-c4cnc5cc(OCCCN6CCCC6)ccn45)ncn3)cc2)cn1,14.4,31.9,1.33,2.72,3.89,22.2,15.1,31.5,2.31,6.94,15.5,30.4,2.23,5.5,1.78,3.22,1.61,3.17,16.2,31.9 µM
C/C(=N\NC(N)=O)C(CN(C)C)C(c1ccccc1)c1c(O)c2ccccc2oc1=O (stereo not drawn),–,> 100,–,> 100,–,7.67,–,> 100,–,> 100,–,> 100,–,> 100,–,> 100,–,> 100,–,> 100 µM
CCSc1nc(COC(=O)NC)c(COC(=O)NC)n1C,–,> 100,–,> 100,–,> 90.6,–,> 23.2,–,> 100,–,> 100,–,> 100,–,35.5,–,> 100,–,> 82 µM
CCOC(=O)N1CCN(S(=O)(=O)c2oc(-c3ccc(Cl)cc3)nc2C#N)CC1,13.5,> 100,–,–,1.8,3.75,2.48,6.31,2.14,7.15,3.96,13.8,2.37,7.71,1.76,3.15,1.69,3.75,17.2,> 100 µM
Nc1nc(OCc2ccccc2)nc2[nH]ncc12,19.3,37.8,28.6,77.6,> 100,> 100,18.4,> 100,–,–,20.3,47.9,19,37.1,25.5,> 100,18.9,39.3,11.2,26.4 µM
COc1ccccc1-c1c(C)nn2c(NCc3ccccn3)cc(C)nc12,34.7,> 50,7.31,> 50,15.9,> 50,> 40.2,> 50,20.4,> 50,> 50,> 50,11.2,> 50,3.51,> 50,14.9,> 50,3.84,> 50 µM
CC(C)OC(=O)c1ccc2[nH]c(O)c(C(=Nc3ccc(N(C)C(=O)CN4CCN(C)CC4)cc3)c3ccccc3)c2c1,0.471,2.4,0.28,3.83,0.243,1.71,0.408,1.63,0.357,1.18,0.898,2.72,1.54,3.57,0.332,1.4,0.369,1.62,0.188,1 µM
Clc1ccc2nc(Oc3ccccc3)cnc2c1,> 100,> 100,> 100,> 100,14,> 100,> 100,> 100,> 100,> 100,–,–,> 100,> 100,> 100,> 100,> 100,> 100,8.84,> 100 µM
CCOC(=O)c1cnn(-c2ccnc3c(C(F)(F)F)cccc23)c1N,> 100,> 100,> 100,> 100,29.6,> 100,> 100,> 100,> 100,> 100,> 100,> 100,> 100,> 100,> 100,> 100,> 100,> 100,> 100,> 100 µM
NCc1ccc(-n2c(-c3nonc3N)nc3cnccc32)cc1,> 14.4,> 25,7.58,> 25,–,–,11.4,> 25,> 11.8,> 25,> 25,> 25,> 25,> 25,5.68,> 25,7.1,> 25,1.38,> 22.1 µM
Fc1ccc(Nc2nc(NCCNc3ccnc4cc(Cl)ccc34)nc(N3CCOCC3)n2)cc1,13.4,26.5,2.27,5.77,1.03,6.88,8.68,21.1,1.8,4.89,2.2,4.51,1.9,3.65,7.06,20.2,4.21,16.4,1.48,8.47 µM
CCc1c[nH]c2ncnc(N3CC[C@@](N)(CNC(=O)c4ccc(F)cc4F)C3)c12,30.5,> 100,62,> 100,20.9,> 100,42.2,> 100,38.7,> 100,35.5,> 100,34.5,> 100,23.8,> 100,31.3,> 100,16.4,53.4 µM
C=C(C)CCC(C)N1CCC(N2CCC(C(=O)NCCc3ccccc3)CC2)CC1 (stereo not drawn),68.9,> 100,22.1,> 100,13.4,62,> 100,> 100,25.7,> 100,21.3,54.3,13.5,30.5,17.2,53.8,24.7,> 100,4.55,44.4 µM
Oc1cc(Cl)ccc1Oc1ccc(Cl)cc1Cl,2.27,5.16,3.27,10.2,2.11,5.69,4.61,16.3,3.31,8.31,2.41,5.01,2.28,6.48,3.47,11.3,3.51,12.7,2.8,14.1 µM
Cc1ccc2c(c1)ncn2-c1ncnc2c1CC(C)c1ccccc1N2C (stereo not drawn),0.174,13.6,0.0922,14.5,3.77,18.7,0.244,15.6,0.0282,0.0781,1.13,18.3,–,–,0.383,12.1,0.0435,15.9,0.0567,17 µM
C=C[C@]1(C)C=C2C(=O)[C@@]3(O)OC[C@@]4(CCCC(C)(C)C43O)C2(O)C(O)C1 (stereo partly drawn),11.4,24.7,1.46,> 21.5,5.13,18.5,3.03,11.6,3.41,13,12.4,27.4,2.06,4.21,1.54,3.1,0.827,2.31,12.8,25.6 µM
CCc1c2c(nc3cccc(N)c13)-c1cc3c(c(=O)n1C2)COC(=O)[C@]3(O)CC,0.00143,4.29,–,0.655,0.00331,–,0.00161,> 100,0.00127,0.0182,–,–,–,–,–,–,0.011,> 100,0.0569,0.487 µM and 0.0609 µM
CS(=O)(=O)Nc1cc(-c2ccc3ncnc(Nc4ccc5c(cnn5Cc5ccc(F)cc5)c4)c3c2)cnc1Cl,1.53,41.4,1.92,12.9,–,–,2.66,19.1,0.435,2.75,1.09,3.28,2.17,17.9,2.99,> 100,2.5,12.8,1.33,3.4 µM
O=c1[nH]cnc2c(C3OC(CO)C(O)C3O)scc12 (stereo not drawn),46.9,> 100,> 100,> 100,5.03,> 100,5.47,> 100,19.6,> 100,44.8,> 100,> 100,> 100,49.1,> 100,99.9,> 100,> 100,> 100 µM
COc1cc(/C=C(/c2ccccc2)[N+](=O)[O-])c(OC)c2c1OCO2,2.32,5.12,2.64,13.1,1.48,3.2,1.64,3.02,1.79,5.64,1.85,4,1.58,3.4,1.71,3.08,1.52,3.56,1.54,3 µM
N#CC1C(N)=NNC12Nc1ccccc1N2 (stereo not drawn),64.3,> 100,–,–,2.2,34.5,10.8,> 100,52.4,> 100,15.1,77.5,–,–,34.9,> 100,26.8,> 100,–,–
Fc1ccc(Nc2nccc(-c3c(-c4ccc(C(F)(F)F)cc4)nn4ncccc34)n2)cc1F,> 25,> 25,> 25,> 25,> 25,> 25,> 25,> 25,> 25,> 25,–,–,> 25,> 25,> 25,> 25,> 25,> 25,> 25,> 25 µM
CCOC(=O)c1c(C)n(Cc2ccc(Cl)cc2Cl)c2c1cc1oc(=O)c(=O)n3c(Cc4ccccc4)nc2c13,5.37,18.3,4.65,17.4,1.56,3.81,2.45,6.64,2.09,6.09,11.8,32.6,17.3,36.3,3.06,11.8,1.95,4.3,–,–
CC1=CC(=O)C(C(C)=Nc2ccccc2Cl)C(=O)O1 (stereo not drawn),> 100,> 100,> 100,> 100,94.4,> 100,> 100,> 100,> 100,> 100,–,–,> 100,> 100,> 100,> 100,> 100,> 100,> 100,> 100 µM

# From PubChem BioAssay (NCI)
